Reference: patent US20060264362A1, “Method of modulating smooth muscle cell functioning by modulating sphingosine kinase mediated signalling” (Medvet Science Pty. Ltd., priority 2003, published 2006)
Entries after “also recorded” stand apart in the source; their conditions may differ.

Key:
[1] = system: resistance arteries; assay: SNP (NO)-induced dilations in preconstricted resistance arteries; format: cell-based, hamsters; conditions: for preconstriction level (diameter): 1 μmol/L S1P or 0.3 μmol/L NE
Source text: (§1) The care of the animals and the experimental procedures were in accordance with German animal protection laws. The preparation of the vessels and the technique of calcium (fura 2) and diameter measurements were previously described (Bolz et al., 1999, supra; Bolz S S, Fisslthaler B, Pieperhoff S et al., FASEB J. 2000;14:255-260). Briefly, RA (maximal outer diameter 180-250 μm) from gracilis muscle of female hamsters were cannulated with micropipettes and studied at 45 mmHg transmural pressure. Fura 2 was alternatingly excited at 340 or 380 nm. The ratio F340nm/F380nm at 510 nm was calculated after subtraction of the background fluorescence (obtained after fura 2-quenching with 8 mmol/L MnCl2). Diameters were simultaneously recorded by videomicroscopy at wavelengths>610 nm to avoid interference with fura 2-measurements.
Additionally, dose-response curves for SNP were obtained in arteries preconstricted by 0.3 μmmol/L NE under control conditions, in the presence of the Rho kinase inhibitor Y27632 (1 μmol/L) or in N19RhoA-transfected arteries.
(§2) Dilations are expressed as “% of maximum dilation”=[(diaVD−diaNE)/(diamax−diaNE)]×100, with diaVD and diaNE representing steady state diameters 2 min after administration of […] and diamax being the maximal diameter obtained in Ca^2+-free 1 mmol/L EGTA-containing MOPS buffer.

[2] = system: depolarized resistance arteries; assay: Apparent Ca2+-sensitivity of depolarized resistance arteries (120 mmol/L K+, Ca2+ex 0-3 mmol/L); format: cell-based, hamsters; conditions: for effect on NO (SNP)-induced Ca^2+-desensitization: 10 μmol/L SNP, ODQ 1 μmol/L, calyculin A 120 nmol/L, S1P 10 nmol/L or RhoA^Ala-188 transfection
Source text: as §1
To transfect plasmids containing C3 transferase or the respective mutated RhoA sequences (N19RhoA, RhoA^Ala-188) into VSMCs, arteries were incubated for 18-21 h in a artery culture system (Bolz et al., 2000, supra) with culture medium containing antibiotics, the transfectant Effectene® (16 μl/ml) and 5 μg of the respective plasmid. Unspecific effects of the transfection procedure were assessed by comparing vascular responses of non-transfected RA and arteries transfected with green fluorescent protein (GFP).
The apparent Ca^2+-sensitivity of the arteries was assessed by stepwise increasing the extracellular Ca^2+ concentration (Ca^2+, 0-3 mmol/L) around the arteries kept in depolarizing solution (120 mmol/L K^+). Depolarization-dependent opening of voltage-gated calcium channels allowed increases in Ca^2+ ex to be reproducibly followed by increases in VSMC [Ca^2+]i (Bolz et al., 2000, supra). The Ca^2+-sensitivity was assessed under control conditions, in the presence of SNP and in the combined presence of SNP and the respective modulating substance or protein (ODQ, calyculin A, S1P, RhoA^Ala-188).

[3] = system: isolated resistance arteries; assay: Pressure-induced myogenic response (reversal of initial distension), 45 to 110 mmHg; format: cell-based, syrian hamsters
Source text: The preparation of the vessels, the technique of calcium and diameter measurements (Bolz, S. S., de Wit, C., Pohl, U. (1999) Br J Pharmacol 128:124-134) as well as the artery culture and transfection method (Bolz, S. S., Pieperhoff, S., de Wit, C. et al. (2000) Am J Physiol Heart Circ Physiol 279:H1434-H1439) were previously described in more detail. Briefly, segments of small resistance arteries (maximal diameter 213±3 μm, n+116) were excised from the gracilis muscle of female syrian hamsters, cannulated with glass micropipettes and perfused with culture medium at a transmural pressure of 45 mmHg. for selective transfection of smooth muscle cells, 60 μl/mL transfection reagent (Effectene, Qiagen, Germany) and 5 μg of the respective DNA plasmid were added to the organ bath for 20-22 h.
(§3) After termination of the culture period resistance arteries were washed with MOPS-buffered salt solution and transferred to an inverted microscope. Incubation with fura 2 (2 h at 37° C.) from the abluminal side allowed selective determination of smooth muscle Ca^2+ within the vascular wall. Simultaneous measurements of smooth muscle intracellular Ca^2+ and diameter were performed as described previously (Bolz, S. S., de Wit, C., Pohl, U. (1999) supra). In all 116 arteries included in the study, smooth muscle and endothelial function was assessed by testing all resistance arteries for their constrictor response to norepinephrine (NE 0.3 μmol/L) and their dilator response to acetylcholine (ACh, 1 μmol/L). […] Measurements were performed at 37° C.
Myogenic responses were described as % reversal of initial distension (RID) calculated as RID=((diadistended−diatime)/(diadistended−diarest))×100, with diatime being the actual diameter of the artery at a given time point after increase in transmural pressure.
(§4) To compare Ca^2+i and diameter changes over time after application of pressure, a non-linear regression analysis was employed. Briefly, the goodness of the fit to a Gompertz function was calculated for every individual curve at first and then for pooled data sets.

[4] = system: MYPT1; assay: Translocation of MLCP myosin-binding subunit MYPT1 (immunofluorescence, western blot); format: cell-based, hamster
Protocol: (§5) Arteries were fixed with 3.7% formaldehyde, permeabilized with 0.3% Triton X-100, blocked with 1% BSA and incubated with the primary antibody (MLCP: rabbit anti-mouse, 1:200, Covance; RhoA: mouse monoclonal, 1:200, Santa Cruz Biotechnology). FITC-labelled goat anti-rabbit or donkey anti-mouse (1:200, each) were used as secondary antibodies. Images were obtained using a Zeiss LSM410 confocal microscope equipped with a Kr/Ar laser and a 40×/1.2 W water immersion objective.
Tissue samples of hamster aorta were quick-frozen in liquid nitrogen and homogenized. Cytosolic and particulate fractions were separated by centrifugation of the homogenate at 100.000 g (Beckman Coulter, Optima Max-E). Pellets were resuspended in lysis buffer plus 1% Triton-X 100. Protein-matched samples were electrophoresed by SDS-PAGE (7%), transferred to nitrocellulose membranes (Amersham), and subjected to immunostaining using a polyclonal primary antibody (rabbit anti-mouse, 1:500). An HRP-labelled secondary antibody (goat anti-rabbit, 1:10000, Santa Cruz) was used with ECLplus (Amersham) to visualize the signal.

[5] = system: resistance arteries; assay: S1P-induced vasoconstriction of resistance arteries; format: cell-based, hamsters; conditions: for effect on S1P-induced constrictions: S1P <1 μmol/L
Source text: as §1
The technique to transfect intact C3 transferase protein using Trans LT was previously described (Bolz et al., 2000, supra).
Changes in diameter and [Ca^2+]i were continuously recorded in 70 vessels from 41 animals. All vessels studied developed spontaneous tone (9.6±1% of maximal diameter). The viability of each vessel was assessed by its constriction to NE (0.3 μmol/L) and a dilation>80% in response to 1 μmol/L ACh.

[6] = system: RhoA; assay: RhoA translocation (immunostaining); format: cell-based, hamsters; conditions: 10 nmol/L S1P, 2 min
Protocol: as §5

[7] = system: isolated resistance arteries; assay: Resting tone in isolated, transfected resistance arteries; format: cell-based, syrian hamsters; conditions: 10 nmol/L
Source text: The preparation of the vessels, the technique of calcium and diameter measurements (Bolz, S. S., de Wit, C., Pohl, U. (1999) Br J Pharmacol 128:124-134) as well as the artery culture and transfection method (Bolz, S. S., Pieperhoff, S., de Wit, C. et al. (2000) Am J Physiol Heart Circ Physiol 279:H1434-H1439) were previously described in more detail. […]
After termination of the culture period resistance arteries were washed with MOPS-buffered salt solution and transferred to an inverted microscope. […] In all 116 arteries included in the study, smooth muscle and endothelial function was assessed by testing all resistance arteries for their constrictor response to norepinephrine (NE 0.3 μmol/L) and their dilator response to acetylcholine (ACh, 1 μmol/L). […]
Tone was calculated as % of maximal diameter [tone(% of diamax)=((diamax−diarest)/diamax)×100] that was determined at the end of every experiment in Ca^2+-free solution under stimulation with 1 μmol/L ACh.

[8] = system: smooth muscle Ca^2+; assay: Pressure-induced increases in smooth muscle Ca2+ (fura 2); format: cell-based, syrian hamsters; conditions: inhibition of RhoA/Rho kinase pathway
Protocol: as §3, §4

[9] = system: resistance arteries; assay: Ca2+-dependent dilations induced by ACh or NS1619; format: cell-based, hamsters
Source text: as §1, §2

[10] = S1P 0.001 μmol/L plus named inhibitor
[11] = S1P 0.01 μmol/L plus named inhibitor
[12] = S1P 0.1 μmol/L plus named inhibitor
[13] = S1P 1 μmol/L plus named inhibitor

Q: Which “preconstriction level (diameter)” value [1] does the source give for `NC[C@H](O)c1ccc(O)c(O)c1` [NE, Norepinephrine] here?
A: 128±2 μm

Q: With `O=c1onc2cnc3ccccc3n12` [ODQ] as the compound, how does the “effect on NO (SNP)-induced Ca^2+-desensitization” value [2] read?
A: blocked; also recorded: completely reversed

Q: What does the source list for `CCCCCCCCCCCCC/C=C/[C@@H](O)[C@@H](N)COP(=O)(O)O` [S1P, sphingosine-1-phosphate]?
A: myogenic response with exogenous S1P ([3]; 10 nmol/L S1P): 144±11 % RID; translocation of MYPT1 to the smooth muscle cell plasmamembrane ([4]; S1P, 2 min): induced a translocation; S1P-induced vasoconstriction, Control ([5]; S1P 0.001 μmol/L): −0.2 ± 0.4 % of diamax; S1P-induced vasoconstriction, Control ([5]; S1P 0.01 μmol/L): −7.7 ± 2.4 % of diamax; S1P-induced vasoconstriction, Control ([5]; S1P 0.1 μmol/L): −27.0 ± 3.4 % of diamax; S1P-induced vasoconstriction, Control ([5]; S1P 1 μmol/L): −45.0 ± 2.0 % of diamax; RhoA localisation after stimulation [6]: translocated to the membrane; also recorded: translocation to the membrane; preconstriction level (diameter) [1]: 130±10 μm; reduction of SNP-induced dilations after preconstriction with S1P vs NE ([1]; SNP 1 μmol/L, preconstriction 1 μmol/L S1P vs 0.3 μmol/L NE): 64±8%; constriction induced by S1P itself [7]: no significant constrictions; effect on NO (SNP)-induced Ca^2+-desensitization [2]: abolished; also recorded: blocked; effect of S1P per se on Ca^2+-sensitivity ([2]; S1P 10 nmol/L, Ca^2+ex 0.25-0.75 mmol/L): increased the Ca^2+-sensitivity only in a medium concentration range

Q: Which results are given for `C[C@@H](N)[C@H]1CC[C@H](C(=O)Nc2ccncc2)CC1` [Y27632]?
A: S1P-augmented myogenic response after blocker ([3]; 10 nmol/L S1P plus Rho kinase inhibitor): 3±1 % RID; myogenic response, reversal of initial distension (RID) ([3]; pressure 45 to 110 mmHg, steady state after 4 min): 1±2 % RID; S1P-induced MYPT1 translocation after RhoA/Rho kinase inhibition ([4]; N19RhoA-transfected or Y27632 (1 μmol/L)-pretreated arteries): absent; S1P-induced vasoconstriction after inhibition of RhoA or Rho kinase [5, 10]: 0.1 ± 0.4 % of diamax; S1P-induced vasoconstriction after inhibition of RhoA or Rho kinase [5, 11]: −0.4 ± 0.2 % of diamax; S1P-induced vasoconstriction after inhibition of RhoA or Rho kinase [5, 12]: −3.4 ± 1.8 % of diamax; S1P-induced vasoconstriction after inhibition of RhoA or Rho kinase [5, 13]: −20.0 ± 7.2 % of diamax; effect on S1P-induced constrictions [5]: abolished; effect on NO-induced dilations ([1]; NE 0.3 μmol/L-preconstricted, Y27632 1 μmol/L or N19RhoA overexpression): significantly augmented; diameter at NE-induced tone ([1]; NE 0.3 μmol/L, Y27632 1 μmol/L): 115±5 μm; resting diameter ([1]; Y27632 1 μmol/L): 195±18 μm; pressure-induced increases in Ca^2+ [8]: 19±3%

Q: How did the “effect on NO (SNP)-induced Ca^2+-desensitization” value [2] turn out when `COC[C@@H]([C@H](O)[C@H](O)C(=O)NCC[C@H](C)c1nc(/C=C/C[C@@H]2O[C@]3(C[C@@H](O)[C@@H]2C)O[C@H]([C@H](C[C@H](O)[C@H](C)[C@H](O)[C@H](C)/C=C(C)/C(C)=C/C=C/C(C)=C\C#N)OC)[C@H](OP(=O)(O)O)C3(C)C)co1)N(C)C` [calyculin A] was run?
A: reversed

Q: What about the “effect on NO (SNP)-induced Ca^2+-desensitization” value ([2]; listed as Calyculin A) of the same compound?
A: almost abolished

Q: Which “S1P-induced vasoconstriction after inhibition of RhoA or Rho kinase” value [5, 10] does the source give for C3 transferase here?
A: 0.7 ± 0.3 % of diamax

Q: What about the “S1P-induced vasoconstriction after inhibition of RhoA or Rho kinase” value [5, 11] of the same compound?
A: 0.5 ± 0.6 % of diamax

Q: What about the “S1P-induced vasoconstriction after inhibition of RhoA or Rho kinase” value [5, 12] of the same compound?
A: −2.8 ± 0.7 % of diamax

Q: And the “S1P-induced vasoconstriction after inhibition of RhoA or Rho kinase” value [5, 13]?
A: −18.1 ± 2.9 % of diamax

Q: What about the “effect on S1P-induced constrictions” value [5] of the same compound?
A: abolished

Q: And the “Ca^2+/diameter curve (Ca^2+-sensitivity of the contractile apparatus)” value ([2]; C3 transferase-transfected arteries)?
A: significantly shifted to the right; also recorded: significantly desensitized

Q: With charybdotoxin as the compound, how does the “effect on dilations by ACh (+L-NA/indomethacin) and NS1619” value [9] read?
A: abolished
